Source: ChEMBL document CHEMBL1177813, “Design and synthesis of trivalent ligands targeting opioid, cholecystokinin, and melanocortin receptors for the treatment of pain” (Bioorg Med Chem Lett, 2010)
Calls of active or inactive are those of the source. No cut-off for these calls is given here.

Legend:
[1] = target: Delta-type opioid receptor (Homo sapiens, UniProt P41143); experiment: Displacement of [3H]DPDPE from human delta opioid receptor expressed in mouse HN9.10 cells; format: cell-based
Mu-type opioid receptor = Mu-type opioid receptor (Rattus norvegicus, UniProt P33535); experiment: Displacement of [3H]DAMGO from rat mu opioid receptor expressed in mouse HN9.10 cells; format: cell-based
Mu-type opioid receptor, sequence (P33535 whole entry): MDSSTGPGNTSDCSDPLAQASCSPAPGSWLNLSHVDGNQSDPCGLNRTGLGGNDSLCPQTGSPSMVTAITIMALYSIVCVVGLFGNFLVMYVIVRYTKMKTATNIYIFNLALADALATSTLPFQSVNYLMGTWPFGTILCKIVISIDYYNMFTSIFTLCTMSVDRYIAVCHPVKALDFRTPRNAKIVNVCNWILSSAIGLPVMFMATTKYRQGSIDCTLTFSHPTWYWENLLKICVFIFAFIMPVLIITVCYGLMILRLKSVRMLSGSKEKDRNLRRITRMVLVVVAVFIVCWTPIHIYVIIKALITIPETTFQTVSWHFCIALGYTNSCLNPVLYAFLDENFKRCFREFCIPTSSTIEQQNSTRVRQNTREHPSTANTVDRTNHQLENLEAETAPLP

[2] = target: Delta-type opioid receptor (Mus musculus, UniProt P32300); experiment: Antagonist activity at delta opioid receptor in mouse vas deferens assessed as inhibition of DPDPE-induced muscle contraction; format: functional, tissue-based
Delta-type opioid receptor (Mus musculus, UniProt P32300), sequence (P32300 whole entry): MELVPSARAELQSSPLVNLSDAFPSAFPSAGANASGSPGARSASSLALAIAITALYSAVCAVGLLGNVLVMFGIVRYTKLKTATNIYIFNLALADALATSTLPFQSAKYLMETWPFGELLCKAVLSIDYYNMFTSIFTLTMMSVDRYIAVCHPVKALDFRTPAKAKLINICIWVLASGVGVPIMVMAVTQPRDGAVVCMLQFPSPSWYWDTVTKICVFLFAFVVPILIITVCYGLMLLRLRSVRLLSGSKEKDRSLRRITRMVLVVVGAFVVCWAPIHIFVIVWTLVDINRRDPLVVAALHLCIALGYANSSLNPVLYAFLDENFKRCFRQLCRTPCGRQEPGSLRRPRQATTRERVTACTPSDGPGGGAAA

Cavia porcellus = species on record: Cavia porcellus; experiment: […] activity at CCK receptor in Hartley guinea pig ileum longitudinal muscle with myenteric plexus assessed as inhibition of CCK8-stimulated muscle contraction at 1 uM; format: functional, tissue-based
[3] = Agonist activity at CCK receptor in Hartley guinea pig ileum longitudinal muscle with myenteric plexus assessed as inhibition of electrically-stimulated muscle contraction at 1 uM relative to KCl; format: functional, Cavia porcellus; set-up: scale not given: the % may be the effect or the level left
[4] = target: T1, Gastrin/cholecystokinin type B receptor (Homo sapiens, UniProt P32239); experiment: Displacement of [125I]CCK-8(SO3) from human CCK2 receptor expressed in human HEK293 cells; format: cell-based
T1 sequence (P32239 whole entry): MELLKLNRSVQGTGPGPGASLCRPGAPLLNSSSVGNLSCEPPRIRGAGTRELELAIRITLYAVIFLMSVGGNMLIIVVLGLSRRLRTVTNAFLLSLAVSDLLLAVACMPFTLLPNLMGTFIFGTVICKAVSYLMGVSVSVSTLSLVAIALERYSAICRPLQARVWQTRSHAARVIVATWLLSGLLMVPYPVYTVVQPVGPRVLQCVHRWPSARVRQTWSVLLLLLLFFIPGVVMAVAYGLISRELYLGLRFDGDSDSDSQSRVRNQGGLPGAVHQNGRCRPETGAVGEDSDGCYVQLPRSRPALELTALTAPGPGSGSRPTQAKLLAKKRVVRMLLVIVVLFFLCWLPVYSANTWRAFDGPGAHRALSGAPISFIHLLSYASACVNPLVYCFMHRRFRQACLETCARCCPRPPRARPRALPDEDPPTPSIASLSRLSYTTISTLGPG

[5] = target: T2, Cholecystokinin receptor type A (Homo sapiens, UniProt P32238); experiment: Displacement of [125I]CCK-8(SO3) from human CCK1 receptor expressed in human HEK293 cells; format: cell-based
T2 sequence (P32238 whole entry): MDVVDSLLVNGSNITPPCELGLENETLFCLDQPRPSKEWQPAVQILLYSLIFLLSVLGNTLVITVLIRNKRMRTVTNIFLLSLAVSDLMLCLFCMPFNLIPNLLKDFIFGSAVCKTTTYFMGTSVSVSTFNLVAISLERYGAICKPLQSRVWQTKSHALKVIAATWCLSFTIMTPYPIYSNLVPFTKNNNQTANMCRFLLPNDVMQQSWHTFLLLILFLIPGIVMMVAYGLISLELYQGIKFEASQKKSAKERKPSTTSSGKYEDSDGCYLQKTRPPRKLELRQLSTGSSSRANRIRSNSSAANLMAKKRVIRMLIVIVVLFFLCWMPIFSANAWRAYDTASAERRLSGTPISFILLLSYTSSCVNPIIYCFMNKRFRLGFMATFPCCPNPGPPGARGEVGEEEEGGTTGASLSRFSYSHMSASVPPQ

[6] = target: Mu-type opioid receptor (Cavia porcellus) (UniProt P97266); experiment: Agonist activity at mu opioid receptor in guinea pig ileum assessed as inhibition of electrically-stimulated muscle contraction at 1 uM; format: functional, tissue-based; set-up: scale not given: the % may be the effect or the level left
Mu-type opioid receptor (Cavia porcellus), sequence (P97266 whole entry): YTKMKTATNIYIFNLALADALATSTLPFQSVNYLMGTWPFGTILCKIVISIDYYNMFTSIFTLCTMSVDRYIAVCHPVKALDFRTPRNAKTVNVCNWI

Melanocortin receptor 4 = Melanocortin receptor 4 (Homo sapiens, UniProt P32245); experiment: Displacement of Eu-NDP-alphaMSH from human MC4 receptor expressed in human HEK293 cells; format: cell-based
Melanocortin receptor 4, sequence (P32245 whole entry): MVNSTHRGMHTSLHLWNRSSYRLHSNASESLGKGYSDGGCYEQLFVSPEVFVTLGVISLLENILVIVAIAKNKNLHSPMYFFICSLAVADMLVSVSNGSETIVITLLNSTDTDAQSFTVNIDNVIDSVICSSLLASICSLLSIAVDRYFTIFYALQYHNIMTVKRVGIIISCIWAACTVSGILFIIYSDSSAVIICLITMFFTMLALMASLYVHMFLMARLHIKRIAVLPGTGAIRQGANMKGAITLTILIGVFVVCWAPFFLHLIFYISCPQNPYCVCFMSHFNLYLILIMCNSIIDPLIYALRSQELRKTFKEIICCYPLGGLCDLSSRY

Delta-type opioid receptor (Homo sapiens, UniProt P41143), sequence (P41143 whole entry): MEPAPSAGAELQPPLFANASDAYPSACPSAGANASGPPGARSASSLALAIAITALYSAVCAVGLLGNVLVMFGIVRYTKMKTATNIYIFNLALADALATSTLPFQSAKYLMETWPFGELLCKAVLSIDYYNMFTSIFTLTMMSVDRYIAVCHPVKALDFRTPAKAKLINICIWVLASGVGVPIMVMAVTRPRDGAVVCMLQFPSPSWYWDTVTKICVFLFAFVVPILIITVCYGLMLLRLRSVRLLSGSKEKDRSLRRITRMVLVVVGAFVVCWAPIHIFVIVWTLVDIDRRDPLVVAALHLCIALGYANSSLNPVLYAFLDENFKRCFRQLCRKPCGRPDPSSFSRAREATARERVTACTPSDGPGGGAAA

CCCC[C@H](NC(=O)[C@H](Cc1c[nH]c2ccccc12)NC(=O)[C@H](CCCNC(=N)N)NC(=O)[C@@H](Cc1ccc2ccccc2c1)NC(=O)[C@H](Cc1cnc[nH]1)NC(=O)[C@@H]1Cc2ccccc2CN1C(=O)C(N)Cc1c(C)cc(O)cc1C)C(=O)N[C@@H](CC(=O)O)C(=O)N[C@@H](Cc1ccccc1)C(N)=O (single isomer, unassigned)
IC50 [1]: 0.002 µM | Ki [1]: 0.00091 µM | IC50 (Mu-type opioid receptor): 0.1 µM | Ki (Mu-type opioid receptor): 0.047 µM | IC50 [2]: 0.0025 µM | Ke (Cavia porcellus): inactive | Activity [3]: 0% | IC50 [4]: 0.2 µM | Ki ([4]; read-out: Ki): 0.2 µM | IC50 [5]: 0.0158 µM | Ki ([5]; read-out: Ki): 0.015 µM | Activity [6]: 5% | IC50 (Melanocortin receptor 4): 0.23 µM
